Measurements taken from patent US9918990B2, “Substituted pyrrolo[2,3-c]pyridines and pyrazolo[3,4-c]pyridines as BET protein inhibitors” (Incyte Corporation, priority 2013, dated 2018).

Assays:
KMS.12.BM cells = experiment: KMS.12.BM cell viability assay (Cell Titer-GLO, ATP quantitation); assay type: cell-based; settings: Homo sapiens, 72 h, 3 days, concentration required for 50% cell death, read-out: KMS cellular IC50
Method in brief: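 Human myeloma KMS.12.BM cells, 5000 cells/well in RPMI with 10% FBS, were exposed to a compound concentration range for 3 days. Viability was read by Cell Titer-GLO ATP luminescence relative to untreated cells; IC50 is the concentration giving 50% cell death.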

BRD4-BD2 = BRD4-BD2 (Homo sapiens (Human), UniProt O60885); experiment: BRD4 AlphaScreen assay, BRD4-BD2; assay type: binding; settings: H4Ac4 peptide, 75 min, room temperature, read-out: BRD4 BD-2 enzyme IC50
Method in brief: (§1)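 AlphaScreen read after 75 min dark incubation at room temperature, inhibitors serially diluted in DMSO and added before other components. IC50 from fit of percent control activity versus log inhibitor concentration.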

BRD4-BD1 = BRD4-BD1 (Homo sapiens (Human), UniProt O60885); experiment: BRD4 AlphaScreen assay, BRD4-BD1; assay type: binding; settings: H4Ac4 peptide, 75 min, room temperature, read-out: BRD4 BD-1 enzyme IC50
Method in brief: as §1

C-myc = experiment: KMS.12.BM C-myc ELISA assay; assay type: cell-based; settings: Homo sapiens; KMS.12.BM cells, 2 hours, concentration required for 50% C-myc inhibition
Method in brief: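 Human myeloma KMS.12.BM cells in RPMI/10% FBS were exposed to a compound concentration range for 2 h, then lysed with protease inhibitors. C-myc in clarified lysates was measured by ELISA. IC50 is the concentration giving 50% C-myc inhibition relative to untreated cells.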

Cn1cc(-c2ccc3c(ncn3CCc3ccccc3)c2Oc2ccccc2)c2cc[nH]c2c1=O [Example 48, 6-Methyl-4-[4-phenoxy-1-(2-phenylethyl)-1H-benzimidazol-5-yl]-1,6-dihydro-7H-pyrrolo[2,3-c]pyridin-7-one]
IC50 (KMS.12.BM cells): ≤ 1000 nM
IC50 (BRD4-BD2): < 100 nM
IC50 (BRD4-BD1): < 100 nM
IC50 (C-myc): ≤ 1000 nM

Cn1cc(-c2ccc3ncn(CCCC#N)c3c2Oc2ccccc2)c2cc[nH]c2c1=O [Example 51, 4-[6-(6-Methyl-7-oxo-6,7-dihydro-1H-pyrrolo[2,3-c]pyridin-4-yl)-7-phenoxy-1H-benzimidazol-1-yl]butanenitrile]
IC50 (KMS.12.BM cells): ≤ 1000 nM
IC50 (BRD4-BD2): < 100 nM
IC50 (BRD4-BD1): < 100 nM
IC50 (C-myc): ≤ 1000 nM

Cn1cc(-c2ccc3c(ncn3CCCC#N)c2Oc2ccccc2)c2cc[nH]c2c1=O [Example 52, 4-[5-(6-Methyl-7-oxo-6,7-dihydro-1H-pyrrolo[2,3-c]pyridin-4-yl)-4-phenoxy-1H-benzimidazol-1-yl]butanenitrile]
IC50 (KMS.12.BM cells): ≤ 1000 nM
IC50 (BRD4-BD2): < 100 nM
IC50 (BRD4-BD1): < 100 nM
IC50 (C-myc): ≤ 1000 nM

COc1c(-c2cn(C)c(=O)c3[nH]ccc23)ccc2c1n(CCCC#N)c(=O)n2C [Example 53, 4-[7-Methoxy-3-methyl-6-(6-methyl-7-oxo-6,7-dihydro-1H-pyrrolo[2,3-c]pyridin-4-yl)-2-oxo-2,3-dihydro-1H-benzimidazol-1-yl]butanenitrile]
IC50 (KMS.12.BM cells): ≤ 1000 nM
IC50 (BRD4-BD2): < 100 nM
IC50 (BRD4-BD1): 100 to 1000 nM
IC50 (C-myc): ≤ 1000 nM

COc1c(-c2cn(C)c(=O)c3[nH]ccc23)ccc2c1n(CCC#N)c(=O)n2C [Example 54, 3-[7-Methoxy-3-methyl-6-(6-methyl-7-oxo-6,7-dihydro-1H-pyrrolo[2,3-c]pyridin-4-yl)-2-oxo-2,3-dihydro-1H-benzimidazol-1-yl]propanenitrile]
IC50 (KMS.12.BM cells): ≤ 1000 nM
IC50 (BRD4-BD2): < 100 nM
IC50 (BRD4-BD1): 100 to 1000 nM
IC50 (C-myc): ≤ 1000 nM

Cn1cc(-c2ccc3ncn(CCC#N)c3c2Oc2ccccc2)c2cc[nH]c2c1=O [Example 55, 3-[6-(6-Methyl-7-oxo-6,7-dihydro-1H-pyrrolo[2,3-c]pyridin-4-yl)-7-phenoxy-1H-benzimidazol-1-yl]propanenitrile]
IC50 (KMS.12.BM cells): ≤ 1000 nM
IC50 (BRD4-BD2): < 100 nM
IC50 (BRD4-BD1): < 100 nM
IC50 (C-myc): ≤ 1000 nM

Cn1cc(-c2ccc3c(ncn3C)c2Oc2ccccc2)c2cc[nH]c2c1=O [Example 56, 6-Methyl-4-(1-methyl-4-phenoxy-1H-benzimidazol-5-yl)-1,6-dihydro-7H-pyrrolo[2,3-c]pyridin-7-one]
IC50 (KMS.12.BM cells): ≤ 1000 nM
IC50 (BRD4-BD2): < 100 nM
IC50 (BRD4-BD1): < 100 nM
IC50 (C-myc): ≤ 1000 nM

Cn1cc(-c2ccc3c(ncn3C)c2Oc2ccccc2F)c2cc[nH]c2c1=O [Example 57, 4-[4-(2-Fluorophenoxy)-1-methyl-1H-benzimidazol-5-yl]-6-methyl-1,6-dihydro-7H-pyrrolo[2,3-c]pyridin-7-one]
IC50 (KMS.12.BM cells): ≤ 1000 nM
IC50 (BRD4-BD2): < 100 nM
IC50 (BRD4-BD1): < 100 nM
IC50 (C-myc): ≤ 1000 nM

Cn1cc(-c2ccc3c(ncn3C)c2Oc2cccc(F)c2)c2cc[nH]c2c1=O [Example 58, 4-[4-(3-Fluorophenoxy)-1-methyl-1H-benzimidazol-5-yl]-6-methyl-1,6-dihydro-7H-pyrrolo[2,3-c]pyridin-7-one]
IC50 (KMS.12.BM cells): ≤ 1000 nM
IC50 (BRD4-BD2): < 100 nM
IC50 (BRD4-BD1): < 100 nM
IC50 (C-myc): ≤ 1000 nM

Cn1cc(-c2ccc3c(ncn3C)c2Oc2ccc(F)cc2)c2cc[nH]c2c1=O [Example 59, 4-[4-(4-Fluorophenoxy)-1-methyl-1H-benzimidazol-5-yl]-6-methyl-1,6-dihydro-7H-pyrrolo[2,3-c]pyridin-7-one]
IC50 (KMS.12.BM cells): ≤ 1000 nM
IC50 (BRD4-BD2): < 100 nM
IC50 (BRD4-BD1): < 100 nM
IC50 (C-myc): ≤ 1000 nM

Cn1cc(-c2ccc3c(c2OCC2CCC2)n(CCN2CCOCC2)c(=O)n3C)c2cc[nH]c2c1=O [Example 60, 4-(Cyclobutylmethoxy)-1-methyl-5-(6-methyl-7-oxo-6,7-dihydro-1H-pyrrolo[2,3-c]pyridin-4-yl)-3-(2-morpholin-4-ylethyl)-1,3-dihydro-2H-benzimidazol-2-one]
IC50 (KMS.12.BM cells): ≤ 1000 nM
IC50 (BRD4-BD2): < 100 nM
IC50 (BRD4-BD1): < 100 nM
IC50 (C-myc): ≤ 1000 nM
